Consider one substance from publication PMC10580319, “Quantitative Imaging of the Action of vCPP2319, an Antimicrobial Peptide from a Viral Scaffold, against Staphylococcus aureus Biofilms of a Clinical Isolate” (ACS Infectious Diseases, 2023).

The nature of one data set: in vitro. Conditions: 37 °C. It counts as in vitro ADME, human. As for the experimental part: vCPP2319 at final concentrations of 50, 100, 200, and 500 μM was incubated with 25% (v/v in H2O) human serum (Sigma-Aldrich) at 37 °C, with gentle swirling. At different time points (0, 1, 5, 10, 30, 60 120, 360, and 1440 min), 120 μL aliquots were taken and treated with 20 μL of 5% perchloric acid (v/v in H2O) for 30 min at 4 °C, to stop the proteolytic reaction. To determine the maximum peptide intensity (100% intact peptide; t0), serum proteins were first precipitated, followed by the addition of the peptide. Controls of serum without peptide and peptide not incubated in serum were also included in the assay. Samples were next centrifuged at 13 000g for 10 min to remove serum proteins. The supernatants were analyzed by reversed-phase HPLC (RP-HPLC) and LC–mass spectrometry (LC-MS). The percentage of intact peptide was calculated by RP-HPLC peak integration, expressed as percent of the amount at t0, and data were fitted to a monoexponential decay model using GraphPad Prism 7.0 to estimate the peptide half-life (t1/2). Analytical RP-HPLC was performed on a LC-20AD instrument (Shimadzu, Kyoto, Japan) equipped with a Luna C18 column (4.6 × 50 mm, 3 μm; Phenomenex, Torrance, CA, USA) using linear gradients of solvent B (0.036% (v/v) trifluoroacetic acid (TFA) in acetonitrile (ACN)) into A (0.045% (v/v) TFA in H2O) over 15 min, at a flow rate of 1 mL/min and UV detection at 220 nm. MS analysis was performed on an LC-MS 2010EV instrument (Shimadzu) fitted with an XBridge C18 column (4.6 mm × 150 mm, 3.5 μm, Waters, Cerdanyola del Valles, Spain), eluting with linear gradients of F (0.08% (v/v) formic acid [FA] in ACN) into E (0.1% (v/v) FA in H2O) over 15 min at 1 mL/min flow rate.[45]
1 - vCPP2319 stability in human serum
Figure S1 – vCPP2319 stability in human serum. Variable concentrations of the peptide were incubated with 25% (v/v in H2O) human serum for 0, 30, 60 and 120 min.
The intact peptide was separated from degradation products by HPLC using a 0 – 95% ACN gradient over 15 min. Afterwards, the percentage of intact peptide (Figure 1C) was calculated by chromatograms peak integration.
(1 picture or pasted object on this page, not shown here)

The test system of data set [1] is S. aureus ATCC 6538 biofilms. As to the kind of experiment: Colony count assay on 24 h-preformed biofilms. In kind it is cell-based, Staphylococcus aureus. To be noted: 25 or 50 μM, 4 h, colony count (Figure 2C). As for the experimental part: The effect of vCPP2319 on 24 h-preformed S. aureus biofilms was evaluated using three distinct methods, as previously described:[24] the metabolic activity and viability of biofilm-embedded cells was determined using a resazurin reduction fluorometric assay and a colony count assay, respectively. The total biofilm biomass was quantified by using a crystal violet assay.
S. aureus suspensions at 1 × 10^6 CFU/mL were incubated in a sterile 96-well microtiter clear flat-bottomed polystyrene plate (Corning) for 24 h at 37 °C. Nonadherent bacteria were removed after a washing step with MHB, and preformed biofilms were incubated in the absence or presence of vCPP2319 at 25 or 50 μM, for 4 h at 37 °C. Untreated biofilms were used as a control. To evaluate the effect of vCPP2319 redosing on biofilm-embedded bacteria, 24 h-preformed biofilms were incubated in the absence or presence of vCPP2319 at 25 μM, for 4 h at 37 °C. After a washing step with MHB, biofilms were further incubated in the absence or presence of an additional dose of vCPP2319 at 25 or 50 μM, for 4 h at 37 °C. In both experimental settings, after two washing steps with PBS, the biofilms were resuspended in PBS, followed by cell scrapping with a pipet tip as described elsewhere.[49],[50] […] After incubation, the biofilms were removed by cell scrapping with a pipet tip as described elsewhere.[49],[50] In all experimental settings, aliquots were vortexed at high speed, serially diluted in PBS and plated on nutrient-rich trypcase soy agar (TSA) plates (bioMérieux, Marcy l’Etoile, France). After incubation for 24 h at 37 °C, bacterial colonies were counted, and viable bacteria (in CFU/mL) were reported as percentage of the control.

For data set [2], the system named is S. aureus clinical isolate biofilms. In words: AFM imaging, surface roughness (Rrms). In kind it is cell-based, Staphylococcus aureus. Conditions: 4 h; for cell surface roughness (Rrms): untreated 7.4 ± 1.9 nm; for biofilm surface roughness (Rrms): untreated 183 ± 23 nm. As for the experimental part:
AFM was used to visualize the topography and morphology of S. aureus biofilms in the absence and presence of vCPP2319. Bacterial suspensions at 1 × 10^6 CFU/mL were incubated in a sterile slide with a removable 12 well silicone chamber (Ibidi) for 24 h at 37 °C. After a washing step with MHB, preformed biofilms were incubated in the absence or presence of vCPP2319 at 25 or 50 μM, for 4 h at 37 °C. Untreated and treated biofilms were then washed once with sterile Milli-Q water and incubated with 0.1% (v/v) glutaraldehyde (Sigma-Aldrich) for 4 h at room temperature. Afterward, each sample was washed twice with sterile Milli-Q water and allowed to dry in air for 1 h at room temperature. AFM images were acquired by using a JPK NanoWizard IV (Berlin, Germany) mounted on a Zeiss Axiovert 200 inverted microscope (Oberkochen, Germany). The AFM head was equipped with a 15 μm z-range linearized piezoelectric scanner and an infrared laser. Images were acquired in air and in intermittent contact mode using uncoated silicon ACL cantilevers from AppNano (Mountain View, CA, USA) with typical resonance frequencies of 200–400 kHz and spring constant of 13–77 N/m. Scan speeds ranged between 0.2 and 0.4 Hz and total scan areas of 5 × 5 μm were imaged. Height and error images were recorded. Height images reflect the topography of the sample. Error images are generated by the deflection of the cantilever as it bends while interacting with the sample and are adequate to improve resolution on the edges of objects imaged by AFM. For each experiment, three different areas were imaged. The surface roughness was defined as the root-mean-square roughness (Rrms)[52] and it was obtained from AFM height images using Gwyddion software version 2.56, based on the following equation after compensation for bacterial curvature: [drawing 3] 3 where N is the number of data points and zi is the height deviation of i-th point from a mean line.[53] For the biofilm surface roughness, Rrms values were calculated from the total imaged area of the biofilm, while for the cell surface roughness, Rrms values were calculated from a line of cells in three different regions of each image of untreated and peptide-treated biofilms. The final Rrms values are the averages of all measurements.

What is called fraction remaining is what is left of the initial amount, in per cent.

Where no end group is shown, it is not given here.

Take WRRRYRRWRRRRRWRRRPRR-NH2 [vCPP2319]: the half-life at 50 μM in “in vitro” (50 μM peptide, 25% (v/v in H2O) human serum, RP-HPLC peak integration, monoexponential decay fit, 95% CI 139–401, read-out: half-life (t1/2) in human serum) was determined as 3.45 h. In “in vitro” (100 μM peptide, 25% (v/v in H2O) human serum, RP-HPLC peak integration, monoexponential decay fit, 95% CI 234–542, read-out: half-life (t1/2) in human serum), the half-life at 100 μM was 5.43 h. Besides, the half-life at 200 μM in the data set “in vitro” (200 μM peptide, 25% (v/v in H2O) human serum, RP-HPLC peak integration, monoexponential decay fit, 95% CI 327–490, read-out: half-life (t1/2) in human serum) amounted to 6.53 h. Further, the half-life at 500 μM in the data set “in vitro” (500 μM peptide, 25% (v/v in H2O) human serum, RP-HPLC peak integration, monoexponential decay fit, 95% CI 368–2107, read-out: half-life (t1/2) in human serum) was determined as 10.4 h. For the same substance, the share remaining at 1 h in “in vitro” (after 1 h incubation, all concentrations studied (50, 100, 200, 500 μM), 25% (v/v) human serum, RP-HPLC, read-out: intact peptide remaining) is greater than 60%. The “viability of biofilm-embedded cells” value in data set [1] is recorded as “decreased bacterial viability”. In data set [2] (25 μM), the “cell surface roughness (Rrms)” value is recorded as 13 ± 3 nm and the “biofilm surface roughness (Rrms)” value came out at 303 ± 93 nm. In addition, in data set [2] (50 μM), the “cell surface roughness (Rrms)” value was determined as 20 ± 5 nm and the “biofilm surface roughness (Rrms)” value came out at 429 ± 142 nm.
